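Exposure lasted 48 hours, with cells grown in 96-well plates and compounds tested at five concentrations. GI50 = concentration required for 50% inhibition of growth.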 Active and inactive are the calls of the source. Cut-off read from the data, not from the text of the source: active = GI50 up to about 1.1 µM and inactive = higher. Some results are limits rather than exact numbers.

Some test systems named below: IGROV-1; XF498; HL-60; EKVX; SN12C; HOP-92; KM12; OVCAR-3; UO-31; MCF7; UACC-62; HCT-116; SK-MEL-5; DU-145; OVCAR-5; KM-20L2; RXF 393; LOX IMVI; HOP-62; Hs-578T.
What all share (test): NCI tumour cell line growth inhibition, 48 h

In the case of `CCOC(=O)c1ccc(N[C@@H]2c3cc4c(cc3C(c3cc(OC)c(O)c(OC)c3)[C@H]3C(=O)OCC32)OCO4)cc1` (stereo partly drawn), the GI50 in the experiment on IGROV-1 is 3.27 µM (inactive); in the experiment on XF498, 0.726 µM (active); in the experiment with HL-60, 0.0912 µM (active); in the experiment on EKVX, 1.77 µM (inactive); with SN12C, 0.396 µM (active); with HOP-92, 1.1 µM (active). Besides, the GI50 with KM12 is 1.5 µM (inactive); in the experiment with OVCAR-3 it was 2.85 µM (inactive); in the experiment with UO-31 it was 0.769 µM (active); in the experiment on MCF7 it was 0.105 µM (active); with UACC-62, 0.521 µM (active); in the experiment on HCT-116 it was 1.17 µM (inactive). For the same compound, the GI50 with SK-MEL-5 is 0.505 µM (active); in the experiment on DU-145 it was 0.258 µM (active); with OVCAR-5 it was 1.56 µM (inactive); with KM-20L2 it was 0.713 µM (active).
Take `C#CC[C@@]12CC(=O)C[C@@H]1CCC1(C2)OCCO1.C#CC[C@]12CC(=O)CC[C@H]1CC(=O)C2`: the GI50 was > 100 µM (inactive) in the experiment with IGROV-1; > 100 µM (inactive) in the experiment with XF498; 29.1 µM (inactive) in the experiment on HL-60; > 100 µM (inactive) in the experiment with EKVX; > 100 µM (inactive) with SN12C; > 100 µM (inactive) in the experiment on HOP-92. Moreover, the GI50 with KM12 is > 100 µM (inactive); in the experiment on OVCAR-3 it was > 100 µM (inactive); in the experiment on UO-31, > 100 µM (inactive); in the experiment with MCF7, > 100 µM (inactive); with UACC-62 it was 95.5 µM (inactive); with HCT-116, > 100 µM (inactive). Also, the GI50 in the experiment on SK-MEL-5, with RXF 393, with LOX IMVI, with HOP-62, in the experiment on OVCAR-5 and with KM-20L2 was > 100 µM (inactive) in each case.
On to `Cc1c(N=NN(C)C)cc[n+]([O-])c1C`, for which the GI50 in the experiment with IGROV-1, in the experiment on XF498, with HL-60, in the experiment on EKVX, with SN12C and in the experiment on HOP-92 was > 100 µM (inactive) in each case. Moreover, the GI50 with KM12, in the experiment with OVCAR-3, in the experiment with UO-31, in the experiment with MCF7, in the experiment with UACC-62 and in the experiment with HCT-116 was > 100 µM (inactive) in each case. The GI50 in the experiment on SK-MEL-5, in the experiment on RXF 393, in the experiment with LOX IMVI, in the experiment on HOP-62, in the experiment with OVCAR-5 and in the experiment with KM-20L2 was > 100 µM (inactive) throughout.
As to `O=c1cnn(C2OC(CO)C(O)C2O)c(=S)[nH]1` (stereo not drawn), the GI50 is 28.7 µM (inactive) in the experiment on IGROV-1; > 100 µM (inactive) with Hs-578T; > 100 µM (inactive) in the experiment on XF498; 2.05 µM (inactive) in the experiment on HL-60; > 100 µM (inactive) with EKVX; > 82 µM (inactive) in the experiment on SN12C. The GI50 is > 100 µM (inactive) with HOP-92; 22.3 µM (inactive) in the experiment with KM12; > 54.2 µM (inactive) in the experiment on OVCAR-3; 28.2 µM (inactive) in the experiment on UO-31; 10.6 µM (inactive) in the experiment with MCF7; 19.4 µM (inactive) with UACC-62. The GI50 in the experiment on HCT-116 was 1.67 µM (inactive); in the experiment on SK-MEL-5, > 55.5 µM (inactive); with RXF 393, > 100 µM (inactive); in the experiment with LOX IMVI, 1.24 µM (inactive); with HOP-62, > 63.7 µM (inactive); in the experiment on DU-145, 9.4 µM (inactive). Further, the values for the GI50 with OVCAR-5 and in the experiment with KM-20L2 were > 78.3 µM (inactive) and 28.9 µM (inactive), respectively.
Take `COc1cc(C2c3cc4c(cc3[C@@H](Nc3cccc(C(C)=O)c3)C3COC(=O)[C@H]23)OCO4)cc(OC)c1O` (stereo partly drawn): the GI50 was 3.03 µM (inactive) in the experiment on IGROV-1; 0.573 µM (active) in the experiment on XF498; < 0.0327 µM (active) in the experiment on HL-60; 2.21 µM (inactive) in the experiment on EKVX; 0.405 µM (active) in the experiment on SN12C; 0.478 µM (active) in the experiment with HOP-92. Also, the GI50 in the experiment on KM12 is 1.59 µM (inactive); with OVCAR-3 it was 1.91 µM (inactive); with UO-31 it was 0.291 µM (active); in the experiment on MCF7, 0.0785 µM (active); with UACC-62 it was 0.233 µM (active); with HCT-116, 0.664 µM (active). Besides, the GI50 was 0.411 µM (active) in the experiment with SK-MEL-5; 0.762 µM (active) with RXF 393; 0.39 µM (active) with LOX IMVI; 0.122 µM (active) with HOP-62; 2.1 µM (inactive) with OVCAR-5; 1.66 µM (inactive) with KM-20L2.
With `CN(C(=O)c1ccc(OCCCC(=O)O)c(Cl)c1Cl)C1CCCC1`, the GI50 is > 100 µM (inactive) with IGROV-1; 28.4 µM (inactive) in the experiment on XF498; > 72.8 µM (inactive) in the experiment on HL-60; > 100 µM (inactive) in the experiment on EKVX; > 100 µM (inactive) in the experiment with SN12C; 45.3 µM (inactive) with HOP-92. Moreover, the GI50 in the experiment on KM12 is > 100 µM (inactive); with OVCAR-3 it was > 100 µM (inactive); with UO-31, > 60 µM (inactive); in the experiment with MCF7, > 100 µM (inactive); in the experiment on UACC-62 it was > 100 µM (inactive); in the experiment on HCT-116, > 62.8 µM (inactive). Moreover, the GI50 in the experiment with SK-MEL-5 was > 100 µM (inactive); with RXF 393, > 71.1 µM (inactive); with LOX IMVI, > 100 µM (inactive); in the experiment on HOP-62 it was > 100 µM (inactive); in the experiment with OVCAR-5, > 100 µM (inactive); with KM-20L2 it was > 100 µM (inactive).

The values above are taken from ChEMBL document CHEMBL1201862, “PubChem BioAssay data set” (2004).
